Reference: article PMC4334441 (Analytical biochemistry, 2013)
Where two headings read alike, the source gives them in different places.

Tests used:
Format in all cases: biochemical
[1] = target: mammalian-expressed ADAM17_ECD (Homo sapiens, UniProt P78536); experiment: Inhibition studies; conditions: comparison of insect- and mammalian-produced ADAM17_ECD
[2] = target: mammalian-produced ADAM17 ECD (Homo sapiens, UniProt P78536); experiment: Inhibition kinetics; conditions: for Ki/Ki′ (alpha) / inhibition mechanism: mammalian-produced ADAM17 ECD; for Ki/Ki′ (alpha): mixed-model inhibition; for inhibition mechanism: confirmed by Lineweaver-Burke plots
[3] = target: insect-produced ADAM17 ECD (Homo sapiens, UniProt P78536); experiment: Inhibition kinetics; conditions: for Ki/Ki′ (alpha) / inhibition mechanism: insect-produced ADAM17 ECD; for Ki/Ki′ (alpha): mixed-model inhibition; for inhibition mechanism: confirmed by Lineweaver-Burke plots
[4] = target: insect-produced ADAM17_ECD (R&D Systems) (Homo sapiens, UniProt P78536); experiment: ADAM17 active site titration with MMP-9/-13 inhibitor, insect-produced ADAM17
Sequence of insect-produced ADAM17_ECD (R&D Systems) (P78536 215-671 limits assumed): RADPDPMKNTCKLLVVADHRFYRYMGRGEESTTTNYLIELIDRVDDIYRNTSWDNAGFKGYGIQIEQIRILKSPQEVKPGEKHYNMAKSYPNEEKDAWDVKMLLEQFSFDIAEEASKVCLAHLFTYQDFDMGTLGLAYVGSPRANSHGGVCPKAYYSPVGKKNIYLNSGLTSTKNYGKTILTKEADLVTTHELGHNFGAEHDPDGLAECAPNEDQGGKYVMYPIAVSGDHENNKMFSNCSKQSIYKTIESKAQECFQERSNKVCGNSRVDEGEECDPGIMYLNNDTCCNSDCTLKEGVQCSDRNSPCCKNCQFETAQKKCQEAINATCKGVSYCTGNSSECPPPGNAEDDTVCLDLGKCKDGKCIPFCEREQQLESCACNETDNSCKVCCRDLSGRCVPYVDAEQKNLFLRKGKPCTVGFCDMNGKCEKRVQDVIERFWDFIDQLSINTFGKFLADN

Sequence of mammalian-expressed ADAM17_ECD (P78536 215-651 limits assumed): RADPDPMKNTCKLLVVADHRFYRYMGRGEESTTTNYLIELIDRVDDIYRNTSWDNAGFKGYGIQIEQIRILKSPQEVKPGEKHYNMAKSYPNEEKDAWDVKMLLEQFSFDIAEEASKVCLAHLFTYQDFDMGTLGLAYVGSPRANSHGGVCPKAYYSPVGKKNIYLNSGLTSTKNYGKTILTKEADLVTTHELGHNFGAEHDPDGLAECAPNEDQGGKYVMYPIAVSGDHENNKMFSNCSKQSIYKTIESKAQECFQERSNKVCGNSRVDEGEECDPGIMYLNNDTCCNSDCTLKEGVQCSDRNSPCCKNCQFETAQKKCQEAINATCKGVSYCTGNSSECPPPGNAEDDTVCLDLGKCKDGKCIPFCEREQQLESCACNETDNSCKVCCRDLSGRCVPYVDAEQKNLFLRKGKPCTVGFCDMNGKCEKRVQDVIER
Sequence of mammalian-produced ADAM17 ECD (P78536 215-651 limits assumed): as above
Sequence of insect-produced ADAM17 ECD (P78536 215-671 limits assumed): as the sequence (P78536 215-671 limits assumed) above

Compound | dose response curves for inhibition of insect- versus mammalian-expressed ADAM17 [1] | Ki [2] [nM] | Ki/Ki′ (alpha) [2] | inhibition mechanism ([2]; non-linear regression) | Ki [3] [nM] | Ki/Ki′ (alpha) [3] | inhibition mechanism ([3]; non-linear regression) | stoichiometry of ADAM17_ECD and MMP-9/-13 inhibitor (factor) ([4]; 10.5 nM divided by enzyme concentration 0.4 nM, Fig. 5B) | concentration of inhibitor necessary to produce 100% inhibition of ADAM17 ([4]; titration, enzyme concentration 0.4 nM, Fig. 5A) [nM] | Ki ([2]; mammalian-produced ADAM17, mixed inhibition model, non-linear regression) [nM] | Ki ([3]; insect-produced ADAM17, mixed inhibition model, non-linear regression) [nM]
COc1ccc(S(=O)(=O)N2CCN(C(=O)c3ccc(-c4ccccc4)cc3)CC2C(=O)NO)cc1 (centres unmarked) [MMP-9/-13 inhibitor, N-hydroxy-1-(4-methoxyphenyl)sulfonyl-4-(4-biphenylcarbonyl)piperazine-2-carboxamide] | superimposable | 1.8 ± 0.1 | 0.99 ± 0.34 | pure non-competitive inhibition | 3.1 ± 0.2 | 0.91 ± 0.26 | pure non-competitive inhibition | 26.3 | 10.5 | – | –
CC(C)C[C@H](CC(=O)NO)C(=O)N[C@H](C(=O)N[C@@H](C)C(=O)NCCN)C(C)(C)C [TAPI-2] | superimposable | – | 2.27 ± 0.55 | mixed inhibition | – | 1.76 ± 0.42 | mixed inhibition | – | – | 32 ± 5 | 31 ± 1.4
CC(=O)NO [AHA, N-acetohydroxamic acid] | superimposable | – | – | – | – | – | – | – | – | – | –
